Reference: PMC4898059 (ACS infectious diseases, 2016)
≈ marks a conversion by molar mass, not a printed value. Where two headings read alike, the source gives them in different places.

Legend:
[1] = test system: MSSA (ATCC 25923); assay: MIC, broth, methicillin-sensitive S. aureus; details: for MIC MSSA: modal value of experimental triplicates; for MIC: Staphylococcus aureus, ATCC25923|MSSA, read-out: MIC MSSA
[2] = test system: MRSA (BAA 1762); assay: MIC, broth, methicillin-resistant S. aureus; details: for MIC MRSA: modal value of experimental triplicates; for MIC: Staphylococcus aureus, BAA1762|MRSA
[3] = target: saMenB (Staphylococcus aureus, UniProt Q5HH38); assay: Isothermal titration calorimetry with saMenB; format: binding, S. aureus
[4] = test system: MRSA; assay: Systemic MRSA infection mouse model; format: in vivo, Swiss Webster mice; details: mice, IP infection, 100 mg/kg SC at 1, 12 and 24 hr post infection
[5] = test system: MRSA; assay: Neutropenic thigh MRSA infection mouse model; format: in vivo, Swiss Webster mice; details: for Reduction of bacterial load in thigh: neutropenic mice, 100 mg/kg SC at 1 and 12 hr post infection
[6] = test system: Pseudomonas aeruginosa (ATCC 27853); assay: MIC, P. aeruginosa; details: for MIC: Pseudomonas aeruginosa
[7] = test system: MRSA cells; assay: DHNA level in treated MRSA cells by LC/UV/MS; details: MRSA cells treated with 8 µg/mL for 18 hr
[8] = test system: Haemophilus influenzae (ATCC 49427); assay: MIC, H. influenzae; details: for MIC: Haemophilus influenzae
[9] = test system: Enterococcus faecium (ATCC 19434); assay: MIC, E. faecium
[10] = test system: MRSA; assay: Agar MIC and colony morphology on tryptic soy agar; format: cell-based, Staphylococcus aureus
[11] = test system: Proteus mirabilis (ATCC 35659); assay: MIC, P. mirabilis; details: for MIC: Proteus mirabilis
[12] = test system: Klebsiella pneumoniae (ATCC 13883); assay: MIC, K. pneumoniae; details: for MIC: Klebsiella pneumoniae
[13] = test system: E. coli (ATCC 25922); assay: MIC, E. coli; details: for MIC: Escherichia coli
[14] = test system: M. tuberculosis; details: ref Li, X., et al. ACS Med Chem Lett, 2011; cited from earlier work
[15] = test system: MRSA cells; assay: Menaquinone-8; format: cell-based, Staphylococcus aureus; details: 1/10, 1/5, 1/3 and ½ MIC
[16] = test system: Bacillus subtilis (ATCC 6051); assay: MIC, B. subtilis

saMenB, sequence (Q5HH38 whole entry): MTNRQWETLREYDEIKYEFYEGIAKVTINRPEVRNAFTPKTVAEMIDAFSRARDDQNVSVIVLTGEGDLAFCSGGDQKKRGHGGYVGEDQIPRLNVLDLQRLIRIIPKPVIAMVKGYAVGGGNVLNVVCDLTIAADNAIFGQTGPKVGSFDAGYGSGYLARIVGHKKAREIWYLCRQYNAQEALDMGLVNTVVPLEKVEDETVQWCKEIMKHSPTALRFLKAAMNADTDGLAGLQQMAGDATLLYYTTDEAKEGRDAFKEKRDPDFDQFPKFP

COC(=O)C=CC(=O)c1ccc(Cl)cc1Cl [Compound 5]
MIC MSSA [1]: 1 µg/mL (≈ 3.86 µM) | MIC MRSA [2]: 2 µg/mL (≈ 7.72 µM)

COC(=O)C=CC(=O)c1ccc(F)cc1 [Compound 2]
MIC MSSA [1]: 8 µg/mL (≈ 38.4 µM) | MIC MRSA [2]: 12 µg/mL (≈ 57.6 µM)

COC(=O)C=CC(=O)c1ccc(Br)cc1 [Compound 3]
MIC MSSA [1]: 8 µg/mL (≈ 29.7 µM) | MIC MRSA [2]: 16 µg/mL (≈ 59.5 µM)

CC(C)(COP(=O)(O)OP(=O)(O)OC[C@H]1O[C@@H](n2cnc3c(N)ncnc32)[C@H](O)[C@@H]1OP(=O)(O)O)[C@@H](O)C(=O)NCCC(=O)NCCS [CoA, coenzyme A]
Kd [3]: 25 ± 4 µM

CN[C@H](CC(C)C)C(=O)N[C@H]1C(=O)N[C@@H](CC(N)=O)C(=O)N[C@H]2C(=O)N[C@H]3C(=O)N[C@H](C(=O)N[C@H](C(=O)O)c4cc(O)cc(O)c4-c4cc3ccc4O)[C@H](O)c3ccc(c(Cl)c3)Oc3cc2cc(c3O[C@@H]2O[C@H](CO)[C@@H](O)[C@H](O)[C@H]2O[C@H]2C[C@](C)(N)[C@H](O)[C@H](C)O2)Oc2ccc(cc2Cl)[C@H]1O [Vancomycin, reference compound]
MIC [1]: 2 µg/mL (≈ 1.38 µM) | Survival rate (days post infection) [4]: 5.8 days | MIC ([2]; read-out: MIC MRSA): 4 µg/mL (≈ 2.76 µM) | Reduction of bacterial load in thigh [5]: 4.2 log CFU/gram tissue

O=C(O)C=CC(=O)c1ccc(Cl)cc1 [Compound 6]
MIC MSSA [1]: > 60 µg/mL | MIC MRSA [2]: > 60 µg/mL

COC(=O)C=CC(=O)c1ccc(Cl)cc1 [Compound 1, methyl 4-(4-chlorophenyl)-4-oxobut-2-enoate]
MIC [1]: 0.35 µg/mL (≈ 1.56 µM) | MIC aerobic ([6]; P. aeruginosa, aerobic): no activity | MIC anaerobic ([6]; P. aeruginosa, anaerobic (GasPak)): no activity | MIC capnophilic ([6]; P. aeruginosa, capnophilic (candle jar)): no activity | MIC ([6]; ATCC27853, read-out: MIC aerobic): > 60 µg/mL | MIC ([6]; ATCC27853, read-out: MIC anaerobic): > 60 µg/mL | MIC ([6]; ATCC27853, read-out: MIC capnophilic): > 60 µg/mL | DHNA in treated cells [7]: could not be detected | MIC capnophilic ([8]; H. influenzae, capnophilic (candle jar)): 0.25 µg/mL (≈ 1.11 µM) | MIC ([8]; ATCC49427, read-out: MIC + MK-4): > 60 µg/mL | MIC ([8]; ATCC49427, read-out: MIC capnophilic): 0.25 µg/mL (≈ 1.11 µM) | Survival rate (days post infection) [4]: 4.6 days | MIC ([9]; ATCC19434, read-out: MIC + MK-4): 31.5 µg/mL | MIC ([9]; ATCC19434, read-out: MIC aerobic): 4 µg/mL (≈ 17.8 µM) | MIC ([9]; ATCC19434, read-out: MIC anaerobic): 1.25 µg/mL (≈ 5.56 µM) | MIC ([9]; ATCC19434, read-out: MIC capnophilic): 2.5 µg/mL (≈ 11.1 µM) | Colony morphology ([10]; MRSA on TSA with 4 µg/mL (½ agar MIC), 48 hr): SCV phenotype | Growth with MK-4 complementation ([10]; MRSA on TSA with 16 µg/mL (2x agar-MIC) and 10 µM MK-4): wild-type growth | Agar MIC ([10]; MRSA on tryptic soy agar, no growth after 72 hr): 8 µg/mL | MIC aerobic ([11]; P. mirabilis, aerobic): no activity | MIC ([11]; ATCC35659, read-out: MIC + MK-4): 31.5 µg/mL | MIC ([11]; ATCC35659, read-out: MIC aerobic): > 60 µg/mL | MIC ([11]; ATCC35659, read-out: MIC anaerobic): 12.5 µg/mL (≈ 55.6 µM) | MIC ([11]; ATCC35659, read-out: MIC capnophilic): 12.5 µg/mL (≈ 55.6 µM) | MIC ([2]; read-out: MIC + MK-4): > 60 µg/mL | MIC ([2]; read-out: MIC MRSA): 0.75 µg/mL (≈ 3.34 µM) | MIC ([2]; read-out: MIC aerobic): 0.75 µg/mL (≈ 3.34 µM) | MIC ([2]; read-out: MIC anaerobic): 0.37 µg/mL (≈ 1.65 µM) | MIC ([2]; read-out: MIC capnophilic): 0.37 µg/mL (≈ 1.65 µM) | MIC aerobic ([12]; K. pneumoniae, aerobic): no activity | MIC anaerobic ([12]; K. pneumoniae, anaerobic (GasPak)): 62.5 µg/mL (≈ 278 µM) | MIC ([12]; ATCC13883, read-out: MIC + MK-4): > 60 µg/mL | MIC ([12]; ATCC13883, read-out: MIC aerobic): > 60 µg/mL | MIC ([12]; ATCC13883, read-out: MIC anaerobic): 62.5 µg/mL (≈ 278 µM) | MIC ([12]; ATCC13883, read-out: MIC capnophilic): > 60 µg/mL | MIC aerobic ([13]; E. coli, aerobic): no activity | MIC ([13]; ATCC25922, read-out: MIC + MK-4): > 60 µg/mL | MIC ([13]; ATCC25922, read-out: MIC aerobic): > 60 µg/mL | MIC ([13]; ATCC25922, read-out: MIC anaerobic): 15.5 µg/mL (≈ 69 µM) | MIC ([13]; ATCC25922, read-out: MIC capnophilic): 15.5 µg/mL (≈ 69 µM) | Reduction of bacterial load in thigh [5]: 3.1 log CFU/gram tissue | Dose dependence of bacterial burden in thigh ([5]; neutropenic mice, 25, 50 and 100 mg/kg SC): dose dependent reduction | MIC aerobic [14]: 0.64 µg/mL (≈ 2.85 µM) | Change in MK-8 with increasing concentration [15]: dose dependent decrease | MIC ([16]; ATCC6051, read-out: MIC + MK-4): > 60 µg/mL | MIC ([16]; ATCC6051, read-out: MIC aerobic): 8 µg/mL (≈ 35.6 µM) | MIC ([16]; ATCC6051, read-out: MIC anaerobic): 2 µg/mL (≈ 8.9 µM) | MIC ([16]; ATCC6051, read-out: MIC capnophilic): 4 µg/mL (≈ 17.8 µM)

Cc1onc(-c2ccccc2)c1C(=O)N[C@@H]1C(=O)N2[C@@H]1SC(C)(C)[C@@H]2C(=O)O [Oxacillin, reference compound]
MIC [1]: 0.1 µg/mL (≈ 0.249 µM) | Survival rate (days post infection) [4]: 1.5 to 1.6 days | MIC ([2]; read-out: MIC MRSA): > 128 µg/mL | Reduction of bacterial load in thigh [5]: minimal effect

COC(=O)C=CC(=O)c1ccc([N+](=O)[O-])cc1 [Compound 4]
MIC MSSA [1]: 4 µg/mL (≈ 17 µM) | MIC MRSA [2]: 4 µg/mL (≈ 17 µM)
